The values below come from US20210155670A1, “SYSTEMS AND METHODS FOR THE PREPARATION OF PEPTIDE-MHC-I COMPLEXES WITH NATIVE GLYCAN MODIFICATIONS” (The Regents of the University of California, priority 2019, published 2021).

Assay [1] concerns the target T1, HLA-A*68:02/TAPBPR complex (Homo sapiens, UniProt P04439+P61769, A269V/D140Y/D185E/E176V/E277Q/E87N/F33Y/G231S/I121R/I166T/I218V/L180W/N151K/P208A/P217A/Q86R/R138H/R169H/R297K/S129P/V36M).
T1 construct: human beta-2 microglobulin signal peptide (N); TEV protease site (C, cleaved yes); FOS leucine zipper (C, cleaved yes); made in house; host or cells: CHO cells
Briefly: Native gel shift assay of peptide binding to HLA-A*68:02/TAPBPR complex. The note with it: Example 2, 10-molar excess of peptide. An excerpt: CHO-derived HLA-A*02:01/TAPBPR complexes can be loaded with high-affinity TAX9 and MART-1 peptides (FIG. 11D). […] The two alleles have considerable sequence homology in the peptide-binding groove formed by the α1/α2 domains, resulting in a shared preference for a Val, Leu, Ala or Ile at the peptide anchor position 9, but marked variation at anchor position 2 where HLA-A*02:01 has a preference for Leu while HLA-A*68:02 prefers Thr (FIG. 11A). […] Structure-based modeling (Nerli and Sgourakis, bioRxiv, 2020.03.23.004176 (2020)) confirmed A-pocket hydrogen bonding interactions between peptide anchor position L2 with the K66 sidechain, Y7 with Y99 from HLA-A*02:01, and anchor position T2 with N66 and N63 from HLA-A*68:02 (FIG. 11B). According to the electrophoretic mobility shift assay, all predicted high-affinity peptides bound to HLA-A*02:01 and HLA-A*68:02 resulting in discrete pMHC-I protein bands. (FIG. 11C).
Gels were imaged using an Innotech FluoChem2 system (Genetic Technologies Grover, Mo.).
For orientation: In EMSA bound probe runs differently from free probe, usually more slowly.

Assay [2] has as its target T2, HLA-A*02:01/TAPBPR complex (Homo sapiens, UniProt P04439+P61769, D140Y/D185E/D98H/E176V/E277Q/G131W/G231S/I119V/I121R/I166T/I218V/N151K/N90K/P208A/P217A/Q86G/Q94H/R138H/R169H).
T2 construct: human beta-2 microglobulin signal peptide (N); TEV protease site (C, cleaved yes); FOS leucine zipper (C, cleaved yes); made in house; host or cells: CHO cells (CHO-K1s / CHO-K1s C1s-/-), co-transfected, secreted
Description: Native gel shift assay of peptide binding to HLA-A*02:01/TAPBPR complex.

In assay [3] the target is T3, HLA-A*24:02/TAPBPR complex (Homo sapiens, UniProt P04439+P61769, D101N/D140Y/E190D/F33S/G103R/G107R/I119L/I121M/L105A/N151K/N90K/Q86E/Q94H/R106L/R138H/R89G/T104I/V100E/W191G/Y123F).
T3 construct: human beta-2 microglobulin signal peptide (N); TEV protease site (C, cleaved yes); FOS leucine zipper (C, cleaved yes); made in house; host or cells: CHO cells
Briefly: Native gel electrophoresis of HLA-A*24:02/TAPBPR complex with peptides. In kind it is binding. The conditions noted are these: FIG. 14c.

Setting [4] is: Example 2, 10-fold molar excess of peptide, native gel.

Entries after “also recorded” stand apart in the source; their conditions may differ. Where two headings read alike, the source gives them in different places. Ends that are not written are not given here.

Take GLLGIGILTV [GM1]: in assay [1], the “pMHC-I band formation in electrophoretic mobility shift assay” value is “significant binding”. In the case of LLFGVPVYV [TAX9], in assay [2], the “native gel band shift of MHC-I (pMHC formation)” value is given as “resulted in a band shift”. Besides, in assay [2] (setting [4]), the “pMHC-I band formation in electrophoretic mobility shift assay” value is on record as “formation of discrete bands corresponding to properly conformed pMHC species; also recorded: can be loaded; also recorded: pMHC-I formation”. Taken in the same sequence, the figures for RGPGRAFVFI [Peptide P18_I10] were “did not” and “non-binding”. Regarding RYPLTFGWCF [Nef138-10], the “complex dissociation in the presence of peptide, native gel” value in assay [3] is given as “complex dissociation”.

TLACFVLAAV: the “pMHC-I band formation in electrophoretic mobility shift assay” value in assay [2] was “little or no binding”.

For the sequence VYGFVRACL [PHOX2B], the “complex dissociation in the presence of peptide, native gel” value in assay [3] is “complex dissociation”. Turning to WLMWLIINL, the “pMHC-I band formation in electrophoretic mobility shift assay” value in assay [2] (setting [4]) is “little or no binding”. As for “YPNVNIHNF [NIH p29, non-specific (NS) negative control peptide]”, the “native gel band shift of MHC-I (pMHC formation)” value in assay [2] (Example 1, SEC purified unzippered complex, 5:1 molar ratio, 1 h room temperature) is given as “did not”. Also, the “pMHC-I band formation in electrophoretic mobility shift assay” value in assay [2] (setting [4]) was “non-binding”.
